Assay results reported in patent US9649381B2, “Transporter protein-coupled nanodevices for targeted drug delivery” (Wayne State University, priority 2013, dated 2017).

Columns and labels:
C2Hx rats = test: EMG recording of diaphragm recovery in C2Hx rats after injection into the paralyzed hemidiaphragm; format: in vivo, rat
From the text: In one case, rats with hemisection at C2Hx, hereafter “C2Hx rats,” have undergone surgical treatment to disrupt the bulbospinal pathway from the rVRG to the PN, the primary source for descending respiratory drive. Paralysis of the ipsilateral diaphragm muscle in C2Hx confirmed by electomygram (EMG). In such rats, the latent crossed phrenic pathway remains intact, as axons decussate caudal to injury.
In one example, a nanodevice with a targeting portion of WGA-HRP and a molecule to be delivered of pro-THP, the pro-THP being bound to the connecting portion by a slow drug release linker, was administered by injection into the paralyzed hemidiaphragms of a cohort of 11 C2-hemisected rats. About 50 μl of the nanodevice, which contained about 0.275 μg of pro-THP, was injected. Five 10 μl injections were conducted at even spatial intervals to spread the conjugate throughout the hemidiaphragm. This constitutes a single round of injections and thus considered to be a one-time, single-injection type of treatment.
FIG. 3 illustrates a trial of C2Hx rats that have been treated with a WGA-HRP/gold/pro-theophylline nanodevice. In each plot, the Y-axis 301a/b/c/d represents a voltage signal and the X-axis 302/a/b/c/d represents time, increasing from left to right. Two different types of plots are shown in FIG. 3; FIG. 3A-C are EMG recordings and FIG. 3D is a phrenic nerve recording. […]

[1] = test system: rat spinal cord injury model animals; test: Chronic systemic drug administration, persistence of hemidiaphragm recovery in spinal cord injury model animals; format: in vivo; conditions: multiple systemic administrations over 3 days
From the text: Chronic administrations of theophylline, however, induce plasticity in the respiratory pathways which results in recovery that persists for days. Specifically, three days of orally administered theophylline three times per day (for a total of nine doses) was sufficient to bring about and maintain respiratory recovery that persisted for about 3 days, about 7 days, about 12 days, and about 30 days after the last drug administration in separate groups of animals.
Theophylline is both an adenosine receptor antagonist and a phosphodiesterase (PDE) inhibitor. Chronic administration of rolipram (a PDE-4 specific inhibitor), pentoxifylline (a general PDE inhibitor), or DPCPX (an adenosine A1 receptor antagonist) also induce persistent functional recovery of a paralyzed hemidiaphragm in rat spinal cord injury model animals for as long as 10 days, the longest interval studied, after the animal is last exposed to the drugs. Although rolipram and pentoxifylline have been approved for clinical use, these “first generation” PDE inhibitors can induce the same side effects as theophylline, including nausea and vomiting.

[2] = test system: patients with cervical spinal cord injury; conditions: cited from earlier work

| Compound | dosage required for recovery in a rat (C2Hx rats; single administration, studies like FIG. 3A-D) | amount of theophylline required to realize recovery (C2Hx rats; C2Hx rats, systemic treatment) | recovery after multiple systemic administrations [1] | left diaphragm EMG activity ([2]; patient with asymmetrical cervical spinal cord injury, acute and chronic theophylline) | increase in diaphragm EMG activity, maximum ([2]; tetraplegic patient, ventilator dependent, intravenous, increasing doses over one day, therapeutic levels) |
| --- | --- | --- | --- | --- | --- |
| CCCn1c(=O)c2[nH]c(C3CCCC3)nc2n(CCC)c1=O [DPCPX, 1,3-dipropyl-8-cyclopentylxanthine] | 0.093 microgram |  |  |  |  |
| Cn1c(=O)c2[nH]cnc2n(C)c1=O [theophylline] |  | 15 mg/kg | long-lasting recovery | markedly increased | 50% |
